Measurements published in patent publication US9050341B2, “Methods of treating drug resistant and other tumors by administering 6,7-dialkoxy quinazoline derivatives” (NATCO PHARMA LIMITED, priority 2009, dated 2015).

What was measured:
Experiment in all cases: KinomeScan kinase profiling
Type in all cases: binding
EGFR (E746-A750del) = target: T1, EGFR (E746-A750del) (Homo sapiens, UniProt P00533, DEL746-750)
T1 construct: purchased Ambit Biosciences Corp (KinomeScan); host or cells: T7 phage in E. coli host derived from BL21
In short: (§1)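 Kinases were expressed as T7 phage fusions in a BL21-derived E. coli host and the cleared lysates were used. Ligand beads were blocked with biotin and buffer (1% BSA, 0.05% Tween 20, 1 mM DTT). Compounds came from 40× DMSO stocks, and phage in the eluates was titred by qPCR.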

BMPR1B = target: T2, BMPR1B (Homo sapiens, UniProt O00238)
T2 construct: purchased Ambit Biosciences Corp (KinomeScan); host or cells: E. coli host derived from the BL21 strain, T7 phage
T2 sequence (O00238 14-502): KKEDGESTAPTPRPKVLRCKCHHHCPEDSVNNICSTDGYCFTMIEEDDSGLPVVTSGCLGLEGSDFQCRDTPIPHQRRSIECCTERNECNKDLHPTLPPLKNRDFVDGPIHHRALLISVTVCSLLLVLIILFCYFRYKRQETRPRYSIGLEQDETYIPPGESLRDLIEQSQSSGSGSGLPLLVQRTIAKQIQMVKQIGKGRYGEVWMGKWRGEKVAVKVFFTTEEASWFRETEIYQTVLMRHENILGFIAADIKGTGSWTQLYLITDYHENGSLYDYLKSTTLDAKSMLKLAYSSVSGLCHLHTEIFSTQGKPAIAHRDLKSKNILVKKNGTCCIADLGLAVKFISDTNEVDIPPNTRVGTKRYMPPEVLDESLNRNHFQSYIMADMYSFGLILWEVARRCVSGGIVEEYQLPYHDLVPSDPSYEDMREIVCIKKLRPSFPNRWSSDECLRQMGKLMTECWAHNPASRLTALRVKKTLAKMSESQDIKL
In short: as §1

YSK1 = target: T3, YSK1 (Homo sapiens, UniProt O00506)
T3 construct: host or cells: E. coli host derived from the BL21 strain, infected with T7 phage
In short: as §1

ERK8 = target: T4, ERK8 (Homo sapiens, UniProt Q8TD08)
T4 construct: host or cells: E. coli host derived from BL21, T7 phage lysate
In short: as §1

[1] = target: T5, RPS6KA6 (Kin.Dom.-2-C-terminal) (Homo sapiens, UniProt Q9UK32)
T5 construct: RPS6KA6 (Kin.Dom.-2-C-terminal); host or cells: E. coli host derived from the BL21 strain, T7 phage lysate
In short: as §1

FRK = target: T6, FRK (Homo sapiens, UniProt P42685)
T6 construct: host or cells: E. coli host derived from BL21, infected with T7 phage
In short: as §1

TNNI3K = target: T7, TNNI3K (Homo sapiens, UniProt Q59H18)
T7 construct: purchased Ambit Biosciences Corp (KinomeScan); host or cells: E. coli host derived from the BL21 strain (T7 phage lysate)
T7 sequence (Q59H18 whole entry): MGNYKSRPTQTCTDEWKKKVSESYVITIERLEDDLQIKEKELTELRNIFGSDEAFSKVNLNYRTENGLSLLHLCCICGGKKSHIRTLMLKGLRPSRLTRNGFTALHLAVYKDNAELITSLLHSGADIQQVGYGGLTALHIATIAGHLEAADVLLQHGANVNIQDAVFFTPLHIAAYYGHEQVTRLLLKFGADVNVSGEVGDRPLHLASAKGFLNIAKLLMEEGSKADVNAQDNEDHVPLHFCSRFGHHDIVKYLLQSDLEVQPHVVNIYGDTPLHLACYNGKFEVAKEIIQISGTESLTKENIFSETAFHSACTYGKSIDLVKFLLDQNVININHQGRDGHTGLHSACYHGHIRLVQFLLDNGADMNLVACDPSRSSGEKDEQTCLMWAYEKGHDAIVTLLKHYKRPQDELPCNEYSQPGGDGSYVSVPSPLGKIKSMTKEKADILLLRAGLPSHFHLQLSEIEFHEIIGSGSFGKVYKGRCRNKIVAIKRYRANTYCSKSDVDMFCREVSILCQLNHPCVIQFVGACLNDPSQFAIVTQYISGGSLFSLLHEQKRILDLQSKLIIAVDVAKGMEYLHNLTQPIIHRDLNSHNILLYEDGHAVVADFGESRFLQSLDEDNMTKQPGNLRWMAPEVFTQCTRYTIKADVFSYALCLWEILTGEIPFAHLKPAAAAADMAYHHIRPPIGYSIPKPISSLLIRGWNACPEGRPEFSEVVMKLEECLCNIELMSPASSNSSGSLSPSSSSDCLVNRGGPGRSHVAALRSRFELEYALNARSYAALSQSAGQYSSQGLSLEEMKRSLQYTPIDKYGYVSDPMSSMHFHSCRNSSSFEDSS
In short: as §1

TIE2 = target: T8, TIE2 (Homo sapiens, UniProt Q02763)
T8 construct: purchased Ambit Biosciences Corp (KinomeScan); host or cells: E. coli host derived from the BL21 strain (T7 phage lysate)
In short: as §1

[2] = target: T9, JAK2 (JH1domain-catalytic) (Homo sapiens, UniProt O60674)
T9 construct: JAK2 (JH1domain-catalytic); host or cells: T7 phage in E. coli host derived from BL21
T9 sequence (O60674 849-1124 limits assumed): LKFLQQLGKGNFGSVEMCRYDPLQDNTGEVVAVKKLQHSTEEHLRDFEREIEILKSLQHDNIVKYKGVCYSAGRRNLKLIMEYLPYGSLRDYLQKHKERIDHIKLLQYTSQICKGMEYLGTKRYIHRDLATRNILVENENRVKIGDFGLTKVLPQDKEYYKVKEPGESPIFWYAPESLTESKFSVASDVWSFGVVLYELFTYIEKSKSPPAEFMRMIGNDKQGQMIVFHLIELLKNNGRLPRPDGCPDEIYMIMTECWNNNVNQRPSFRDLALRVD
In short: as §1

PRKD3 = target: T10, PRKD3 (Homo sapiens, UniProt O94806)
T10 construct: purchased Ambit Biosciences Corp (KinomeScan); host or cells: E. coli host derived from BL21, infected with T7 phage
T10 sequence (O94806 whole entry): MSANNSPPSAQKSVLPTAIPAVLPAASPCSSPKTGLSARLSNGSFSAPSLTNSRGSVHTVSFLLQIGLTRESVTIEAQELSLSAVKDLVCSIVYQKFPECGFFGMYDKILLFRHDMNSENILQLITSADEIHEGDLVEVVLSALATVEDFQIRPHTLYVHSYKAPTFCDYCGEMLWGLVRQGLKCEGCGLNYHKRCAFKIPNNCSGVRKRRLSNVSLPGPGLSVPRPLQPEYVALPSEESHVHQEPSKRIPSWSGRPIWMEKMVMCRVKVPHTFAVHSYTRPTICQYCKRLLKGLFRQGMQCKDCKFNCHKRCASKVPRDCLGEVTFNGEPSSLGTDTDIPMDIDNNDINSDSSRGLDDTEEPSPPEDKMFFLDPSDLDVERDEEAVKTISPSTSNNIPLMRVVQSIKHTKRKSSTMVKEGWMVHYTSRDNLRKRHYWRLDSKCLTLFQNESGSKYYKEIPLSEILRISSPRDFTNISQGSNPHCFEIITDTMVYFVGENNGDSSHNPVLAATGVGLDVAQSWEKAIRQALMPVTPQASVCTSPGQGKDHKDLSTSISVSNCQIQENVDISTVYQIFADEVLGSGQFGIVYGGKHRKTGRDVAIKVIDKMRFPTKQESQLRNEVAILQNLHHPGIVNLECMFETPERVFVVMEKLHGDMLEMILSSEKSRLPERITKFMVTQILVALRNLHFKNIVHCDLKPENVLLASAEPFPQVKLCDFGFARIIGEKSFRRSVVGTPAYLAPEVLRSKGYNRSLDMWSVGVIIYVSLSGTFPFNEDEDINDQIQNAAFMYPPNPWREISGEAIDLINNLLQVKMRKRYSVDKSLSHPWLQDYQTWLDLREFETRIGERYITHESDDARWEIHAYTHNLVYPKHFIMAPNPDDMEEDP
In short: as §1

IKK-alpha = target: T11, IKK-alpha (Homo sapiens, UniProt O15111)
T11 construct: host or cells: T7 phage in E. coli host derived from BL21
In short: as §1

MAP4K2 = target: T12, MAP4K2 (Homo sapiens, UniProt Q12851)
T12 construct: host or cells: E. coli derived from BL21, infected with T7 phage
T12 sequence (Q12851 whole entry): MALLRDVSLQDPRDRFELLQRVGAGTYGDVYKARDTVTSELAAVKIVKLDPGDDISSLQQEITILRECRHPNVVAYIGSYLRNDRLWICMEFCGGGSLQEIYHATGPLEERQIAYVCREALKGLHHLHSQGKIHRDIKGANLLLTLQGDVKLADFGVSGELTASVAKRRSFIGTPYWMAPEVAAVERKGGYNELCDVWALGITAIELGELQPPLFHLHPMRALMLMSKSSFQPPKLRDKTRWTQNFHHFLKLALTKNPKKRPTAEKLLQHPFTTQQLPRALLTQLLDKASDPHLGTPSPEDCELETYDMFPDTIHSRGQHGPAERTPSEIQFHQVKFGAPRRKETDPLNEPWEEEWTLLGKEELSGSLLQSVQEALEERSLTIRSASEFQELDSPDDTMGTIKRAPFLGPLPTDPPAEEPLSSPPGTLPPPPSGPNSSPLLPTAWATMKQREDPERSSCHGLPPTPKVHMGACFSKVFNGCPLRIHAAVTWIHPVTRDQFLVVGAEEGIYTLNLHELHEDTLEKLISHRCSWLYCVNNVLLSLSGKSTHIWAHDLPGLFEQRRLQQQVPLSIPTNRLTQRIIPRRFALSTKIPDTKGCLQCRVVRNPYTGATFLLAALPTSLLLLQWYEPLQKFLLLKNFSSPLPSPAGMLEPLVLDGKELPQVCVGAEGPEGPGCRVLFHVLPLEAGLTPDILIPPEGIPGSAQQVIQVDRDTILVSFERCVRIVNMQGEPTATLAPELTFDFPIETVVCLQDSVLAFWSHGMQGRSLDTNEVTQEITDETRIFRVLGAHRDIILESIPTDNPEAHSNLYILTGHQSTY
In short: as §1

AXL = target: T13, AXL (Homo sapiens, UniProt P30530)
T13 construct: purchased Ambit Biosciences Corp (KinomeScan); host or cells: E. coli host derived from the BL21 strain, T7 phage
T13 sequence (P30530 26-894): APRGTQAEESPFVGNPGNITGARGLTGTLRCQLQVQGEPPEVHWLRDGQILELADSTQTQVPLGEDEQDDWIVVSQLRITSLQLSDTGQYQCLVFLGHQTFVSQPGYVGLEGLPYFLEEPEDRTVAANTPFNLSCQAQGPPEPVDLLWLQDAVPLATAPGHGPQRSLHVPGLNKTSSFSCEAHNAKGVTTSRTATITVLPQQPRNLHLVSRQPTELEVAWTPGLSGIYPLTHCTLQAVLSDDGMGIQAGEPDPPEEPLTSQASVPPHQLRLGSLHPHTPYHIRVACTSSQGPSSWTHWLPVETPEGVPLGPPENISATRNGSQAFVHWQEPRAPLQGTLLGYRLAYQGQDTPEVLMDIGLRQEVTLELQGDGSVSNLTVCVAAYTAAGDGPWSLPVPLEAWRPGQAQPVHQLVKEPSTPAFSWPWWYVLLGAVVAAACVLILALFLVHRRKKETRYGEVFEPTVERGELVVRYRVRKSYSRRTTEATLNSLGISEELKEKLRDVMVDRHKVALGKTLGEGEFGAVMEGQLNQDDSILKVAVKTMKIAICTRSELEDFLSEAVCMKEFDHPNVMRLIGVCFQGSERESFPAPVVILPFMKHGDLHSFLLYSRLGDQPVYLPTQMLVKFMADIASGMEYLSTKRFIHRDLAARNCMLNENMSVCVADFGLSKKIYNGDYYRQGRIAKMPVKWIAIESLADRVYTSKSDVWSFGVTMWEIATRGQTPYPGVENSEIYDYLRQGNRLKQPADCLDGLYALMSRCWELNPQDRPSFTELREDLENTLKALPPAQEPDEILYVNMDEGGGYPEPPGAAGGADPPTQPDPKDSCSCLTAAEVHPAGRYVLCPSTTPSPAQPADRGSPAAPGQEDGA
In short: as §1

EPHA7 = target: T14, EPHA7 (Homo sapiens, UniProt Q15375)
T14 construct: host or cells: E. coli host derived from BL21, T7 phage lysate
In short: as §1

MERTK = target: T15, MERTK (Homo sapiens, UniProt Q12866)
T15 construct: host or cells: E. coli derived from BL21, infected with T7 phage
In short: as §1

CDKL2 = target: T16, CDKL2 (Homo sapiens, UniProt Q92772)
T16 construct: host or cells: T7 phage in E. coli (BL21-derived)
In short: as §1

SRPK2 = target: T17, SRPK2 (Homo sapiens, UniProt P78362)
T17 construct: host or cells: E. coli host derived from the BL21 strain, T7 phage lysate
In short: as §1

ABL1 (M351T) = target: T18, ABL1 (M351T) (Homo sapiens, UniProt P00519, M351T)
T18 construct: host or cells: E. coli host derived from BL21 (T7 phage lysate)
In short: as §1

AURKB = target: T19, AURKB (Homo sapiens, UniProt Q96GD4)
T19 construct: purchased Ambit Biosciences Corp (KinomeScan); host or cells: E. coli host derived from the BL21 strain, T7 phage
T19 sequence (Q96GD4 whole entry): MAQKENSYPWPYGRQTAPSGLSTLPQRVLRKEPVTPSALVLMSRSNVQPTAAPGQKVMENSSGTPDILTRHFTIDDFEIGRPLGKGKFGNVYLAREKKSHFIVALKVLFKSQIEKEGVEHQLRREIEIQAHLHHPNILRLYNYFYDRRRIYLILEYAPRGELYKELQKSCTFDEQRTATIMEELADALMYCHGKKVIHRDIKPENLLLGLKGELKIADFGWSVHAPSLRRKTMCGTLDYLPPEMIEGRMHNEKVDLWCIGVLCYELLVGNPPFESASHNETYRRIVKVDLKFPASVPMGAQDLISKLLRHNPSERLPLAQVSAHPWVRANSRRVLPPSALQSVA
In short: as §1

CLK3 = target: T20, CLK3 (Homo sapiens, UniProt P49761)
T20 construct: host or cells: T7 phage in E. coli (BL21-derived)
T20 sequence (P49761 whole entry): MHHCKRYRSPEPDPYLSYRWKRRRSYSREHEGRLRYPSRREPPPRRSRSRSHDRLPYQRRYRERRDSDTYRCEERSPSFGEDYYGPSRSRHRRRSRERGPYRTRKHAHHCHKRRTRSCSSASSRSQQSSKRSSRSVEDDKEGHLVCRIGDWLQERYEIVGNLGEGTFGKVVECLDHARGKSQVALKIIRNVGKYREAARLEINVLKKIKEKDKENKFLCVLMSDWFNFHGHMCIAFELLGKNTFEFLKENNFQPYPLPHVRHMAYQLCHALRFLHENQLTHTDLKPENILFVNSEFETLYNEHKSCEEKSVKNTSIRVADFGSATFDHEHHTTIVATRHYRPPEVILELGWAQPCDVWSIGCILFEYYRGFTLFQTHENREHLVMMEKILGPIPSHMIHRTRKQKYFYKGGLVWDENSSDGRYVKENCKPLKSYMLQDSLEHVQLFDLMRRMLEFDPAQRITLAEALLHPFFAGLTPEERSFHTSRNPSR
In short: as §1

EPHB1 = target: T21, EPHB1 (Homo sapiens, UniProt P54762)
T21 construct: host or cells: E. coli host derived from BL21, T7 phage lysate
In short: as §1

C#Cc1cccc(Nc2ncnc3cc(OC)c(OCCCN4CCOCC4)cc23)c1 [NRC-2694, N-(3-ethylnylphenyl)-7-methoxy-6-[3-(4-morpholinyl)propoxy]-4-quinazolinamine]
% Ctrl @ 10000 nM (EGFR (E746-A750del)): 0 % Ctrl
% Ctrl @ 10000 nM (BMPR1B): 78 % Ctrl
% Ctrl @ 10000 nM (YSK1): 69 % Ctrl
% Ctrl @ 10000 nM (ERK8): 62 % Ctrl
% Ctrl @ 10000 nM [1]: 55 % Ctrl
% Ctrl @ 10000 nM (FRK): 10 % Ctrl
% Ctrl @ 10000 nM (TNNI3K): 7.6 % Ctrl
% Ctrl @ 10000 nM (TIE2): 76 % Ctrl
% Ctrl @ 10000 nM [2]: 38 % Ctrl
% Ctrl @ 10000 nM (PRKD3): 7.2 % Ctrl
% Ctrl @ 10000 nM (IKK-alpha): 41 % Ctrl
% Ctrl @ 10000 nM (MAP4K2): 48 % Ctrl
% Ctrl @ 10000 nM (AXL): 25 % Ctrl
% Ctrl @ 10000 nM (EPHA7): 70 % Ctrl
% Ctrl @ 10000 nM (MERTK): 48 % Ctrl
% Ctrl @ 10000 nM (CDKL2): 67 % Ctrl
% Ctrl @ 10000 nM (SRPK2): 73 % Ctrl
% Ctrl @ 10000 nM (ABL1 (M351T)): 37 % Ctrl
% Ctrl @ 10000 nM (AURKB): 56 % Ctrl
% Ctrl @ 10000 nM (CLK3): 45 % Ctrl
% Ctrl @ 10000 nM (EPHB1): 72 % Ctrl
